Read-outs that look alike come from different tables or passages of the source.
Experiments:
[1] = test system: P. falciparum Dd2 (PfLuc) line expressing firefly luciferase, asexual blood stage; assay: microbe, parasite or virus in culture; assay type: cell-based, Plasmodium falciparum; conditions: Plasmodium falciparum
P. falciparum Dd2 = assay: SYBR green I asexual blood stage proliferation assay (96 h); assay type: cell-based, Plasmodium falciparum; conditions: Plasmodium falciparum, DD2, 11-pt dose response, 96hr
[2] = DD2, read-out: CDD P. falciparum Luciferase ABS 11-pt Reconfirmation Dose Response (48hr): IC50 (μM), 11-pt dose response, 48hr
[3] = DD2, 8-pt dose response, 96hr, read-out: CDD P. falciparum Luciferase ABS 8-pt Reconfirmation Dose Response (96hr): IC50
[4] = DD2, 8-pt dose response, 96hr, read-out: CDD P. falciparum Luciferase ABS 8-pt Reconfirmation Dose Response (96hr): Maximum inhibition (%)
[5] = DD2, 11-pt dose response, 48hr, read-out: CDD P. falciparum Luciferase ABS 11-pt Reconfirmation Dose Response (48hr): Maximum inhibition (%)
[6] = DD2, 11-pt dose response, 96hr, read-out: CDD P. falciparum Luciferase ABS 11-pt Reconfirmation Dose Response (96hr): IC50
[7] = DD2, 11-pt dose response, 96hr, read-out: CDD P. falciparum Luciferase ABS 11-pt Reconfirmation Dose Response (96hr): Maximum inhibition (%)
[8] = Sybr Green I, read-out: CDD P. falciparum Sybr Green I ABS 11-pt Reconfirmation Dose Response (96hr): IC50
[9] = Sybr Green I, read-out: CDD P. falciparum Sybr Green I ABS 11-pt Reconfirmation Dose Response (96hr): Maximum inhibition (%)
[10] = DD2, read-out: P. falciparum Luciferase ABS 11-pt Reconfirmation Dose Response (48hr): IC50, 11-pt dose response, 48hr
[11] = DD2, 8-pt dose response, 96hr, read-out: P. falciparum Luciferase ABS 8-pt Reconfirmation Dose Response (96hr): IC50
[12] = DD2, 8-pt dose response, 96hr, read-out: P. falciparum Luciferase ABS 8-pt Reconfirmation Dose Response (96hr): Maximum inhibition (%)
[13] = DD2, 11-pt dose response, 48hr, read-out: P. falciparum Luciferase ABS 11-pt Reconfirmation Dose Response (48hr): Maximum inhibition (%)
[14] = DD2, 11-pt dose response, 96hr, read-out: P. falciparum Luciferase ABS 11-pt Reconfirmation Dose Response (96hr): Maximum inhibition (%)
[15] = read-out: P. falciparum Sybr Green I ABS 11-pt Reconfirmation Dose Response (96hr): IC50
[16] = read-out: P. falciparum Sybr Green I ABS 11-pt Reconfirmation Dose Response (96hr): Maximum inhibition (%)
[17] = DD2, 11-pt dose response, 96hr, read-out: P. falciparum Luciferase ABS 11-pt Reconfirmation Dose Response (96hr): IC50

Row | SMILES | IC50 [1, 2] [µM] | IC50 [1, 3] [µM] | Emax [1, 4] [%] | Emax [1, 5] [%] | IC50 [1, 6] [µM] | Emax [1, 7] [%] | IC50 (P. falciparum Dd2; [8]) [nM] | Emax (P. falciparum Dd2; [9]) [%] | IC50 [1, 10] [µM] | IC50 [1, 11] [µM] | Emax [1, 12] [%] | Emax [1, 13] [%] | Emax [1, 14] [%] | IC50 ([1]; 96 h incubation, Dd2 luciferase, read-out: 96 hour Pfluc IC50) [µM] | IC50 (P. falciparum Dd2; [15]) [nM] | Emax (P. falciparum Dd2; [16]) [%] | IC50 [1, 17] [µM]
1 | Cc1cccc(C)c1Nc1noc2c1CN(C(=O)c1ccn(C)n1)CC2 [DDD01057030] | 0.885 | 0.26 | 96.3 | 97.1 | 0.693 | 99.6 | 913 | 95.5 | – | – | – | – | – | – | – | – | –
2 | CCCNc1cc(-c2c[nH]nc2C2CCN(C(=O)C3CCC3)C2)ccn1 (centres unmarked) [DDD01057089] | 4.01 | 0.31 | 96.1 | 86.1 | 1.63 | 97.9 | 1340 | 61.5 | – | – | – | – | – | – | – | – | –
3 | NC1CCc2nc(-c3cccnc3)nc(Nc3ccc(F)cc3)c2C1 (centres unmarked) [DDD01057099] | 3.56 | 0.24 | 96.1 | 98.4 | 0.99 | 100 | 1310 | 100 | – | – | – | – | – | – | – | – | –
4 | Fc1ccccc1Cn1c(C2CCNCC2)cc2cccnc21 [DDD01057236] | 3.02 | 0.41 | 92.4 | 64.7 | 1.41 | – | 7030 | 70.6 | – | – | – | – | – | – | – | – | –
5 | COc1ccccc1C1(NCc2c(C)nc3c(C)cccn23)CCCC1 [DDD01057239] | 4.35 | 0.71 | – | 60.6 | 1.55 | 92 | > 1390 | 68.9 | – | – | – | – | – | – | – | – | –
6 | CC(C)Nc1cc(-c2c[nH]nc2C2CCN(C(=O)C3CC3)C2)ccn1 (centres unmarked) [DDD01057305] | 5.35 | 0.29 | 95.7 | – | 1.73 | 98.4 | 8070 | 76.9 | – | – | – | – | – | – | – | – | –
7 | CC(C)CNc1cc(-c2c[nH]nc2C2CCN(C(=O)C3CC3)C2)ccn1 (centres unmarked) [DDD01057306] | 5.71 | 0.28 | 95.6 | – | 1.93 | 96.6 | 5020 | 50.9 | – | – | – | – | – | – | – | – | –
8 | CC(C)Nc1cc(-c2c[nH]nc2C2CCN(C(=O)C3CCC3)C2)ccn1 (centres unmarked) [DDD01057307] | 4.05 | 0.23 | 94.3 | – | 1.42 | 95.8 | 7490 | 72 | – | – | – | – | – | – | – | – | –
9 | COc1cc(C(=O)NCC2(N(C)C)CCN(C)CC2)c2ccccc2n1 [DDD01057375] | – | – | – | – | – | – | – | – | > 12.5 | < 0.00232 | 88.6 | 53 | 87.3 | 0.00714 | > 1390 | 63.6 | –
10 | Fc1cccc(F)c1Cn1c(C2CCNCC2)cc2cccnc21 [DDD01057378] | 1.51 | 0.36 | 91.4 | 76 | 0.733 | 92.1 | 570 | 68.3 | – | – | – | – | – | – | – | – | –
11 | Nc1cc(-c2c[nH]nc2C2CCCN2CCCc2ccccc2)ccn1 (centres unmarked) [DDD01057437] | 3.06 | 0.59 | 96.2 | 63 | 0.669 | 100 | 2260 | 96.1 | – | – | – | – | – | – | – | – | –
12 | Cc1nc(-c2ccc(F)c(F)c2)cc(C2CCNCC2)n1 [DDD01058356] | > 12.5 | 0.84 | 88.2 | 44.3 | 2.02 | 86.7 | 2100 | 68.9 | – | – | – | – | – | – | – | – | –
13 | OC1(c2ccc(F)cc2)CCN(Cc2ccccc2N2CCCC2)CC1 [DDD01058479] | – | – | – | – | – | – | – | – | 3.24 | 1.38 | 88.9 | 76.5 | 94.3 | – | 5910 | 82.4 | 1.95
14 | Clc1cccc(C[C@@H]2NCCC[C@@H]2Nc2ccccc2)c1 [DDD01058682] | – | – | – | – | – | – | – | – | 1.83 | 1.21 | 94.7 | 99.1 | 101 | – | 3390 | 93.6 | 0.857
